# Biological target: Nonstructural protein 3 (Zika virus, UniProt A0A024AXB9)
# Test: Functional biochemical assay to identify treatments for viral infectious disease that targets Zika NS2B-NS3 protease. Utilizing a direct enzyme activity measurement method, reading the fluorescence intensity is used to characterize the relative potency of inhibitors as IC50.
# Parameters: species or system PRVABC59
# Nonstructural protein 3, sequence (A0A024AXB9 whole entry): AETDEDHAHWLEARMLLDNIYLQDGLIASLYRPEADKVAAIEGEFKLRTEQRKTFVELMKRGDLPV
row,IC50 [µM],Compound
1,19,NCCCc1cccc(NC(=O)c2cc(Cl)cc(NC(=O)OCc3ccccc3)c2)n1
2,> 99.5,CC(=O)N1CCC([C@H](NC(=O)OCc2ccccc2)C(=O)Nc2cccc(CN)c2)CC1
3,> 99.5,NCc1cccc(NC(=O)c2cc(NC(=O)OCc3ccccc3)ccc2C(F)(F)F)c1
4,> 99.5,N#Cc1csc(CN2CCC([C@H](NC(=O)OCc3ccccc3)C(=O)Nc3cccc(CN)c3)CC2)c1
5,> 99.5,NCc1cccc(NC(=O)[C@H](NC(=O)OCc2ccccc2)C2CCN(C(=O)[C@H]3C[C@H](O)C3)CC2)c1
6,> 99.5,Cn1ccc(COc2ccc([C@@H](NC(=O)OCc3ccccc3)C(=O)Nc3cccc(CN)c3)cc2)n1
7,97.6,N#CC1(S(=O)(=O)N2CCC([C@H](NC(=O)OCc3ccccc3)C(=O)Nc3cccc(CN)c3)CC2)CCC1
8,> 99.5,NCc1cccc(NC(=O)c2ccc(F)c(NC(=O)OCc3ccccc3)c2F)c1
9,> 99.5,NCc1cccc(NC(=O)[C@H](NC(=O)OCc2ccccc2)C2CCN(C(=O)C3CCOCC3)CC2)c1
10,> 99.5,CNCCS(=O)(=O)N1CCC([C@H](NC(=O)OCc2ccccc2)C(=O)Nc2cccc(CN)c2)CC1
11,23.9,O=C(Nc1cc(Cl)cc(C(=O)Nc2ccc3c(c2)[C@H]2CC[C@H]3N2)c1)OCc1ccccc1
12,83.6,CSc1cc(F)c(C(=O)Nc2cccc(CN)c2)cc1NC(=O)OCc1ccccc1
13,> 99.5,NCc1cccc(NC(=O)[C@@H](NC(=O)OCc2ccccc2)C2CCN(C(=O)c3cscn3)CC2)c1
14,95.5,NCc1cccc(NC(=O)[C@@H](NC(=O)OCc2ccccc2)c2ccc(OCC3CCOCC3)cc2)c1
15,> 99.5,NCc1cccc(NC(=O)[C@H](NC(=O)OCc2ccccc2)C2CCN(C3CCCC3)CC2)c1
16,> 99.5,NCC12CC(NC(=O)c3cc(Cl)cc(NC(=O)OCc4ccccc4)c3)(CCO1)C2
17,> 99.5,CCN(C)S(=O)(=O)N1CCC([C@H](NC(=O)OCc2ccccc2)C(=O)Nc2cccc(CN)c2)CC1
18,> 99.5,CC(C)CC(=O)N1CCC([C@H](NC(=O)OCc2ccccc2)C(=O)Nc2cccc(CN)c2)CC1
19,> 99.5,CC(C)N1CCC([C@H](NC(=O)OCc2ccccc2)C(=O)Nc2cccc(CN)c2)CC1
20,> 99.5,Cn1nnc(S(=O)(=O)N2CCC([C@H](NC(=O)OCc3ccccc3)C(=O)Nc3cccc(CN)c3)CC2)n1
21,> 99.5,NCc1cccc(NC(=O)[C@H](NC(=O)OCc2ccccc2)C2CCN(S(=O)(=O)c3ccccc3)CC2)c1
22,> 99.5,Cc1nnc(CN2CCC([C@H](NC(=O)OCc3ccccc3)C(=O)Nc3cccc(CN)c3)CC2)s1
23,> 99.5,NCc1cccc(NS(=O)(=O)c2cc(Cl)cc(NC(=O)OCc3ccccc3)c2)c1
24,6.27,NCCCc1ccc(F)c(NC(=O)c2cc(Cl)cc(NC(=O)OCc3ccccc3)c2)c1
25,5.16,Cc1cc(CN)cc(NC(=O)c2cc(Cl)cc(NC(=O)OCc3ccccc3)c2)c1
26,13.7,C[C@H](N)c1cccc(NC(=O)c2cc(Cl)cc(NC(=O)OCc3ccccc3)c2)c1
27,> 99.5,NC[C@H]1C[C@@H](CNC(=O)c2cc(Cl)cc(NC(=O)OCc3ccccc3)c2)CCO1

row,IC50 [µM],Compound
1,> 99.5,CC(C)(C#N)CS(=O)(=O)N1CCC([C@H](NC(=O)OCc2ccccc2)C(=O)Nc2cccc(CN)c2)CC1
2,18.4,NCCCc1ccnc(NC(=O)c2cc(Cl)cc(NC(=O)OCc3ccccc3)c2)c1
3,83,NCc1cccc(NC(=O)[C@H](NC(=O)OCc2ccccc2)c2ccc(OCc3ccncn3)cc2)c1
4,> 99.5,Cn1ccnc1COc1cccc([C@H](NC(=O)OCc2ccccc2)C(=O)Nc2cccc(CN)c2)c1
5,32.9,NCc1ccc(CNC(=O)c2cc(Cl)cc(NC(=O)OCc3ccccc3)c2)c(F)c1
6,> 99.5,Cc1nnc(S(=O)(=O)N2CCC([C@H](NC(=O)OCc3ccccc3)C(=O)Nc3cccc(CN)c3)CC2)s1
7,> 99.5,O=C(Nc1cc(Cl)cc(C(=O)NC[C@@]23CC[C@H](CNC2)C3)c1)OCc1ccccc1
8,44.7,Cc1c(CN)cccc1NC(=O)c1cc(Cl)cc(NC(=O)OCc2ccccc2)c1
9,67,NC[C@H]1C[C@](F)(CNC(=O)c2cc(Cl)cc(NC(=O)OCc3ccccc3)c2)C1
10,87.6,CN1CCC(COc2cccc([C@H](NC(=O)OCc3ccccc3)C(=O)Nc3cccc(CN)c3)c2)CC1
11,49.4,NC[C@]12CC[C@](NC(=O)c3cc(Cl)cc(NC(=O)OCc4ccccc4)c3)(CO1)C2
12,> 99.5,NCc1cccc(NC(=O)[C@@H](NC(=O)OCc2ccccc2)C2CCN(Cc3ccncc3)CC2)c1
13,75.6,O=C(Nc1cc(Cl)cc(C(=O)Nc2cccc3c2CNC3)c1)OCc1ccccc1
14,> 99.5,NCc1cccc(NC(=O)c2nc(=O)cc(NC(=O)OCc3ccccc3)[nH]2)c1
15,79.5,NCc1cccc(NC(=O)[C@H](NC(=O)OCc2ccccc2)c2ccc(OCCc3cscn3)cc2)c1
16,> 99.5,Cc1ncc(COc2ccc([C@@H](NC(=O)OCc3ccccc3)C(=O)Nc3cccc(CN)c3)cc2)o1
17,69.7,N[C@H]1CC[C@H](NC(=O)c2cc(Cl)cc(NC(=O)OCc3ccccc3)c2)C1
18,18.1,NCc1ccc(O)c(NC(=O)c2cc(Cl)cc(NC(=O)OCc3ccccc3)c2)c1
19,> 99.5,CN(C)Cc1cc(NC(=O)[C@H](NC(=O)OCc2ccccc2)c2ccc(OCc3ccccc3)cc2)sn1
20,> 99.5,Cn1ccnc1C(=O)N1CCC([C@H](NC(=O)OCc2ccccc2)C(=O)Nc2cccc(CN)c2)CC1
21,61,N[C@@H]1CC[C@H](CCNC(=O)c2cc(Cl)cc(NC(=O)OCc3ccccc3)c2)C1
22,10.9,Cc1ccc(NC(=O)c2cc(Cl)cc(NC(=O)OCc3ccccc3)c2)cc1CN
23,12.1,CCc1ccc([C@@H](CC(=O)Nc2cccc(CN)c2)NC(=O)OCc2ccccc2)cc1Br
24,> 99.5,CCCCS(=O)(=O)N1CCC([C@H](NC(=O)OCc2ccccc2)C(=O)Nc2cccc(CN)c2)CC1
25,> 99.5,NCc1cccc(NC(=O)[C@H](NC(=O)OCc2ccccc2)C2CCN(CCc3ccccc3)CC2)c1
26,> 99.5,Cn1ncc(CN2CCC([C@H](NC(=O)OCc3ccccc3)C(=O)Nc3cccc(CN)c3)CC2)n1
27,> 99.5,NCc1cccc(NC(=O)[C@H](NC(=O)OCc2ccccc2)c2cccc(OCCn3cccn3)c2)c1

# The next lines start with the compound.
row,Compound,IC50 [µM]
1,Cn1nc2c(c1NC(=O)c1cc(Cl)cc(NC(=O)OCc3ccccc3)c1)CCNC2,> 99.5
2,NCc1cccc(NC(=O)c2cc(Cl)cc(OC3CC3)c2)c1,20.6
3,NCc1cccc(NC(=O)c2cc(Cl)cc(N3CCCC3)c2)c1,12
4,CCCCSc1ccc(Cl)cc1C(=O)Nc1cccc(CN)c1,22.3
5,O=C(Nc1cc(Cl)cc(C(=O)NCC2(CO)CCNCC2)c1)OCc1ccccc1,> 99.5
6,c1ccc(-c2[nH]c3ccccc3c2CN2CCC(c3cscn3)CC2)cc1,34.4
7,COc1c(Cl)cc(Cl)cc1C(=O)Nc1cccc(CN)c1,13.9
8,O=C(Cn1ccnc(N2CC[C@H](CO)C2)c1=O)NCc1ccsc1,> 99.5
9,NCc1cccc(NC(=O)c2cc(Cl)ccc2-n2cncn2)c1,17.7
10,NCCc1nsc(NC(=O)c2cc(Cl)cc(NC(=O)OCc3ccccc3)c2)n1,> 99.5
11,CN(C)Cc1cccc(C(=O)Nc2cccc(CN)c2)c1,23.8
12,COCc1cc(Cl)cc(C(=O)Nc2cccc(CN)c2)c1,26.9
13,C=CC[C@]1(NC(=O)c2cc(Cl)cc(NC(=O)OCc3ccccc3)c2)CCNC1,> 99.5
14,Cn1nc(CCN)nc1NC(=O)c1cc(Cl)cc(NC(=O)OCc2ccccc2)c1,31.3
15,O=C(Nc1cc(Cl)cc(C(=O)NC[C@@]23CN[C@H](CCO2)C3)c1)OCc1ccccc1,> 99.5
16,CC(C)OC(=O)Nc1cc(Cl)cc(C(=O)Nc2cccc(CN)c2)c1,2.46
17,O=C(Nc1cc(Cl)cc(C(=O)NC[C@@H]2CNCCC2(F)F)c1)OCc1ccccc1,> 99.5
18,NC12CCC(CNC(=O)c3cc(Cl)cc(NC(=O)OCc4ccccc4)c3)(CC1)OC2,33.1
19,CCS(=O)(=O)c1ccc(Cl)cc1C(=O)Nc1cccc(CN)c1,82.1
20,CCc1[nH]c2ccccc2c1CN1CCC(c2cscn2)CC1,21
21,Cn1nc([C@@H]2CCCN2)nc1NC(=O)c1cc(Cl)cc(NC(=O)OCc2ccccc2)c1,> 99.5
22,O=C(Nc1cc(Cl)cc(C(=O)NC[C@H]2CC3(CNC3)CO2)c1)OCc1ccccc1,46.1

row,Compound,IC50 [µM]
1,C[C@@]1(CNC(=O)c2cc(Cl)cc(NC(=O)OCc3ccccc3)c2)CNCCOC1,> 99.5
2,O=c1ccc(N2CCN(Cc3c[nH]c4ccccc34)CC2)n[nH]1,> 99.5
3,O=C(Cn1ccnc(N2CC[C@H](CO)C2)c1=O)NCc1cccs1,> 99.5
4,NCc1cccc(NC(=O)c2cc(Cl)cc(N3CCCC3=O)c2)c1,11.5
5,NCc1cccc(NC(=O)c2cc(Cl)cc3c2OCCNC3)c1,45.2
6,Oc1cc(N2CCN(Cc3c[nH]c4ccccc34)CC2)ccn1,> 99.5
7,Cc1cccc(CNc2ccc(Cl)cc2C(=O)Nc2cccc(CN)c2)n1,> 99.5
8,CN(C)Cc1csc(NC(=O)c2cc(Cl)cc(NC(=O)OCc3ccccc3)c2)n1,> 99.5
9,O=C(Nc1cc(Cl)cc(C(=O)NC[C@H]2CCNC3(CC3)C2)c1)OCc1ccccc1,> 99.5
10,O=C(Nc1cc(Cl)cc(C(=O)N[C@@]23CCCCC[C@@H]2NCC3)c1)OCc1ccccc1,76.1
11,Cc1nccn1-c1ccc(Cl)cc1C(=O)Nc1cccc(CN)c1,> 99.5
12,NCc1ccccc1Oc1ccc(S(=O)(=O)Nc2ccc(Cl)cc2C(=O)NCC(F)(F)F)cc1,> 99.5
13,CN(C)CCOc1ccc(Cl)cc1C(=O)Nc1cccc(CN)c1,25.6
14,O=C(Nc1cc(Cl)cc(C(=O)NC[C@H]2CNC3(CC3)CO2)c1)OCc1ccccc1,> 99.5
15,O=C(Nc1cc(Cl)cc(C(=O)NC2([C@H]3CCNC3)CC2)c1)OCc1ccccc1,> 99.5
16,O=C(Nc1cc(Cl)cc(C(=O)Nc2nccn2C2CNC2)c1)OCc1ccccc1,> 99.5
17,CSc1cc(Cl)cc(C(=O)Nc2cccc(CN)c2)c1,10.4
18,CN1C(=O)C[C@H](C(=O)Nc2cccc(CN)c2)[C@H]1c1ccc(Cl)c(Cl)c1,> 99.5
19,Cn1nc2c(c1NC(=O)c1cc(Cl)cc(NC(=O)OCc3ccccc3)c1)CNCC2,21.9
20,NCc1cccc(NC(=O)c2cc(Cl)ccc2OCC(F)(F)F)c1,55.5
21,NC[C@]1(F)C[C@@H](NC(=O)c2cc(Cl)cc(NC(=O)OCc3ccccc3)c2)C1,68.6
